# Laboratory results: publication PMC11528066, “Noninvasive Monitoring of Programmed Death-Ligand 2 Expression with Positron Emission Tomography using ^68Ga-labeled Peptide Antagonist in Preclinical and Exploratory Human Studies” (Research, 2024)
# Read-outs that look alike come from different tables or passages of the source. Peptide text beside a SMILES is read from it. * marks the point of attachment. NOTA = O=C(O)CN1CCN(CC(=O)O)CCN(CC(=O)*)CC1; AEEEA = NCCOCCOCCOCC(=O)O
# Legend:
# [1] = In vitro stability in serum (radio-HPLC); type: in vitro ADME; conditions: room temperature, over 4 h (0.5, 1, 2, 4 h), 3.74 MBq, read-out: in vitro stability in serum (radiochemical purity)
# Experimental: The in vitro stability of [^68Ga]Ga-HN11-1 and [^68Ga]Ga-HN11-2 (3.74 MBq) in saline and serum was tested by radio-HPLC analysis of its radiochemical purity after incubation at room temperature for 0.5 , 1 , 2 and 4 h.
# [2] = Biodistribution (γ-counter); type: in vivo, BALB/C nude mice; conditions: male, BALB/C nude, mouse, iv, total radioactivity, mean ± SD, n = 3; for tissue uptake at 10 min / tissue to tissue ratio at 10 min: 10 min p.i.; for tissue uptake at 0.5 h / tissue to tissue ratio at 0.5 h: 30 min p.i.; for tissue uptake at 1.5 h / tissue to tissue ratio at 1.5 h: 90 min p.i.
# Experimental: (§1) Micro-PET imaging was conducted using an Inveon PET scanner (Siemens, Germany). Dynamic PET examine were acquired over the first 60 min following the simultaneous injection of 7.4 to 9.25 MBq (200 to 250 μCi) of [^68Ga]Ga-HN11-1 and [^68Ga]Ga-HN11-2. After reconstructing the images and delineating the regions of interest (ROIs), time-radioactivity curves were plotted to obtain the Tumor/Muscle (T/M) ratios. %ID/g represents the percentage of the injected dose of the radiotracer that accumulates in a specific tissue per gram of tissue weight. For the biodistribution study, the xenograft models received an intravenous injection of 3.7 to 5.5 MBq (100 to 150 μCi) of [^68Ga]Ga-HN11-1. After the designated period (10, 30, 60, and 90 min), the mice were euthanized, and important tissues and organs were dissected and collected. The samples were counted using the γ-counter for determining the %ID/g, presented as mean ± standard deviation (SD).
# (§2) A549 cell lines were provided by the China Center for Type Culture Collection (CCTCC) and cultured in RPMI-1640 medium supplemented with 10 % fetal bovine serum and 100 U/mL penicillin-streptomycin. The lentivirus system was implemented to introduce PD-L2 (PDCD1LG2) over-expressed cDNA into the A549 cells. The viral vectors were produced in 293T cells and co-transfected with the psAX2, pMD2G and PD-L2 plasmids. A549 cells transduced with the vectors were selectively grown in 1.6 μg/mL puromycin. Transfection efficiency was identified by WB and real-time quantitative PCR. All the cells were cultured in an incubator at 37° C with 5 % CO2 atmosphere. A549 and A549-PD-L2 cells (5 × 10^6, 200 μL)were subcutaneously implanted into the right shoulder of BALB/C nude mice (male, 4-6 weeks), respectively. When the tumors reached to 5 - 8 mm in diameter, the mice were subjected to in vivo and ex vivo studies. All the mice were purchased from the Laboratory Animal Center of Central South University.
# [3] = test system: A549-PD-L2 xenograft tumor models; experiment: Biodistribution (γ-counter); type: in vivo, BALB/C nude mice; conditions: mean ± SD, n = 3
# Experimental: as §1, §2
# [4] = large intestine, read-out: Large intestine uptake
# [5] = muscle, read-out: Muscle uptake
# [6] = small intestine, read-out: Small intestine uptake
# [7] = tumor and blood, read-out: Tumor/Blood ratio
# [8] = tumor and brain, read-out: Tumor/Brain ratio
# [9] = tumor and heart, read-out: Tumor/Heart ratio
# [10] = tumor and liver, read-out: Tumor/Liver ratio
# [11] = tumor and lung, read-out: Tumor/Lung ratio
# [12] = tumor and muscle, read-out: Tumor/Muscle ratio
structure (smiles),measurement,setting,value
"CC[C@H](C)[C@H](NC(=O)[C@H](CCCNC(=N)N)NC(=O)CNC(=O)[C@H](CCC(=O)O)NC(=O)[C@H](CC(N)=O)NC(=O)[C@H](Cc1ccc(O)cc1)NC(=O)[C@H](CCCNC(=N)N)NC(=O)[C@H](Cc1ccc(O)cc1)NC(=O)[C@H](Cc1c[nH]cn1)NC(=O)COCCOCCOCCNC(=O)CN1CCN(CC(=O)O)CCN(CC(=O)O)CC1)C(=O)N[C@@H](CCCNC(=N)N)C(=O)N[C@@H](CC(N)=O)C(=O)O [[^68Ga]Ga-HN11-1, metal not drawn] ({NOTA-AEEEA}-HYRYNEGRIRN-OH)",remaining at 4 h,[1],> 95%
same,tissue uptake at 10 min,"[2]; bone, read-out: Bone uptake",0.68 ± 0.06 %ID/g
same,tissue uptake at 0.5 h,"[2]; bone, read-out: Bone uptake",0.6 ± 0.03 %ID/g
same,tissue uptake at 1 h,"[2]; bone, 60 min HN11-1 Block, read-out: Bone uptake",0.43 ± 0.07 %ID/g
same,tissue uptake at 1 h,"[2]; bone, 60 min p.i., read-out: Bone uptake",0.41 ± 0.08 %ID/g
same,tissue uptake at 1.5 h,"[2]; bone, read-out: Bone uptake",0.31 ± 0.06 %ID/g
same,tissue uptake at 10 min,"[2]; brain, read-out: Brain uptake",0.17 ± 0.03 %ID/g
same,tissue uptake at 0.5 h,"[2]; brain, read-out: Brain uptake",0.12 ± 0.03 %ID/g
same,tissue uptake at 1 h,"[2]; brain, 60 min HN11-1 Block, read-out: Brain uptake",0.07 ± 0.01 %ID/g
same,tissue uptake at 1 h,"[2]; brain, 60 min p.i., read-out: Brain uptake",0.07 ± 0.01 %ID/g
same,tissue uptake at 1.5 h,"[2]; brain, read-out: Brain uptake",0.03 ± 0.01 %ID/g
same,tissue uptake at 10 min,"[2]; kidney, read-out: Kidney uptake",55.6 ± 6.6 %ID/g
same,tissue uptake at 10 min,[2]; [4],1.02 ± 0.06 %ID/g
same,tissue uptake at 0.5 h,[2]; [4],0.48 ± 0.09 %ID/g
same,tissue uptake at 1 h,"[2]; large intestine, 60 min HN11-1 Block, read-out: Large intestine uptake",0.23 ± 0.05 %ID/g
same,tissue uptake at 1 h,"[2]; large intestine, 60 min p.i., read-out: Large intestine uptake",0.21 ± 0.05 %ID/g
same,tissue uptake at 1.5 h,[2]; [4],0.1 ± 0.01 %ID/g
same,tissue uptake at 10 min,[2]; [5],0.89 ± 0.02 %ID/g
same,tissue uptake at 0.5 h,[2]; [5],0.69 ± 0.07 %ID/g
same,tissue uptake at 1 h,"[2]; muscle, 60 min HN11-1 Block, read-out: Muscle uptake",0.56 ± 0.04 %ID/g
same,tissue uptake at 1 h,"[2]; muscle, 60 min p.i., read-out: Muscle uptake",0.56 ± 0.09 %ID/g
same,tissue uptake at 1.5 h,[2]; [5],0.15 ± 0.03 %ID/g
same,tissue uptake at 10 min,[2]; [6],0.86 ± 0.09 %ID/g
same,tissue uptake at 0.5 h,[2]; [6],0.62 ± 0.04 %ID/g
same,tissue uptake at 1 h,"[2]; small intestine, 60 min HN11-1 Block, read-out: Small intestine uptake",0.34 ± 0.04 %ID/g
same,tissue uptake at 1 h,"[2]; small intestine, 60 min p.i., read-out: Small intestine uptake",0.21 ± 0.02 %ID/g
same,tissue uptake at 1.5 h,[2]; [6],0.16 ± 0.05 %ID/g
same,tissue to tissue ratio at 10 min,[2]; [7],0.58 ± 0.15
same,tissue to tissue ratio at 0.5 h,[2]; [7],2.66 ± 0.47
same,tissue to tissue ratio at 1 h,"[2]; tumor and blood, 60 min p.i., read-out: Tumor/Blood ratio",6.41 ± 0.98
same,tissue to tissue ratio at 1.5 h,[2]; [7],2.58 ± 0.52
same,tissue to tissue ratio at 1 h,"[2]; tumor and blood, with HN11-1 (block; amount not stated), 60 min HN11-1 Block, read-out: Tumor/Blood ratio",1.94 ± 0.67
same,tissue to tissue ratio at 10 min,[2]; [8],10.3 ± 3.45
same,tissue to tissue ratio at 0.5 h,[2]; [8],30.9 ± 8.94
same,tissue to tissue ratio at 1 h,"[2]; tumor and brain, 60 min p.i., read-out: Tumor/Brain ratio",31.9 ± 7.97
same,tissue to tissue ratio at 1.5 h,[2]; [8],12.3 ± 2.45
same,tissue to tissue ratio at 1 h,"[2]; tumor and brain, with HN11-1 (block; amount not stated), 60 min HN11-1 Block, read-out: Tumor/Brain ratio",9.41 ± 2.19
same,tissue to tissue ratio at 10 min,[2]; [9],1.15 ± 0.19
same,tissue to tissue ratio at 0.5 h,[2]; [9],4.13 ± 0.21
same,tissue to tissue ratio at 1 h,"[2]; tumor and heart, 60 min p.i., read-out: Tumor/Heart ratio",12.7 ± 2.22
same,tissue to tissue ratio at 1.5 h,[2]; [9],3 ± 0.15
same,tissue to tissue ratio at 1 h,"[2]; tumor and heart, with HN11-1 (block; amount not stated), 60 min HN11-1 Block, read-out: Tumor/Heart ratio",3.68 ± 1.43
same,tissue to tissue ratio at 10 min,[2]; [10],0.56 ± 0.07
same,tissue to tissue ratio at 0.5 h,[2]; [10],2.61 ± 0.82
same,tissue to tissue ratio at 1 h,"[2]; tumor and liver, 60 min p.i., read-out: Tumor/Liver ratio",2.53 ± 0.75
same,tissue to tissue ratio at 1.5 h,[2]; [10],2.13 ± 1.27
same,tissue to tissue ratio at 1 h,"[2]; tumor and liver, with HN11-1 (block; amount not stated), 60 min HN11-1 Block, read-out: Tumor/Liver ratio",0.57 ± 0.27
same,tissue to tissue ratio at 10 min,[2]; [11],1.04 ± 0.22
same,tissue to tissue ratio at 0.5 h,[2]; [11],3.69 ± 0.24
same,tissue to tissue ratio at 1 h,"[2]; tumor and lung, 60 min p.i., read-out: Tumor/Lung ratio",3.01 ± 0.53
same,tissue to tissue ratio at 1.5 h,[2]; [11],1.05 ± 0.24
same,tissue to tissue ratio at 1 h,"[2]; tumor and lung, with HN11-1 (block; amount not stated), 60 min HN11-1 Block, read-out: Tumor/Lung ratio",0.69 ± 0.23
same,tissue to tissue ratio at 10 min,[2]; [12],1.82 ± 0.32
same,tissue to tissue ratio at 0.5 h,[2]; [12],5.11 ± 0.25
same,tissue to tissue ratio at 1 h,"[2]; tumor and muscle, 60 min p.i., read-out: Tumor/Muscle ratio",4.11 ± 1.25
same,tissue to tissue ratio at 1.5 h,[2]; [12],2.66 ± 0.43
same,tissue to tissue ratio at 1 h,"[2]; tumor and muscle, with HN11-1 (block; amount not stated), 60 min HN11-1 Block, read-out: Tumor/Muscle ratio",1.11 ± 0.27
same,tissue uptake at 10 min,"[2]; tumor, read-out: Tumor uptake",1.61 ± 0.28 %ID/g
same,tissue uptake at 0.5 h,"[2]; tumor, read-out: Tumor uptake",3.52 ± 0.35 %ID/g
same,tissue uptake at 1 h,"[2]; tumor, 60 min HN11-1 Block, read-out: Tumor uptake",0.63 ± 0.18 %ID/g
same,tissue uptake at 1 h,"[2]; tumor, 60 min p.i., read-out: Tumor uptake",2.2 ± 0.3 %ID/g
same,tissue uptake at 1.5 h,"[2]; tumor, read-out: Tumor uptake",0.39 %ID/g
same,Blood uptake,[3]; 10 min p.i.,2.83 ± 0.21 %ID/g
same,Heart uptake,[3]; 10 min p.i.,1.41 ± 0.10 %ID/g
same,Liver uptake,[3]; 10 min p.i.,2.90 ± 0.47 %ID/g
same,Lung uptake,[3]; 10 min p.i.,1.56 ± 0.06 %ID/g
same,Spleen uptake,[3]; 10 min p.i.,1.91 ± 0.14 %ID/g
same,Stomach uptake,[3]; 10 min p.i.,1.27 ± 0.14 %ID/g
same,Blood uptake,[3]; 30 min p.i.,1.34 ± 0.16 %ID/g
same,Heart uptake,[3]; 30 min p.i.,0.85 ± 0.10 %ID/g
same,Kidney uptake,[3]; 30 min p.i.,66.15 ± 0.73 %ID/g
same,Liver uptake,[3]; 30 min p.i.,1.44 ± 0.31 %ID/g
same,Lung uptake,[3]; 30 min p.i.,0.96 ± 0.09 %ID/g
same,Spleen uptake,[3]; 30 min p.i.,0.86 ± 0.16 %ID/g
same,Stomach uptake,[3]; 30 min p.i.,0.48 ± 0.04 %ID/g
same,Blood uptake,[3]; 60 min HN11-1 Block,0.33 ± 0.02 %ID/g
same,Heart uptake,[3]; 60 min HN11-1 Block,0.18 ± 0.02 %ID/g
same,Kidney uptake,[3]; 60 min HN11-1 Block,76.77 ± 7.10 %ID/g
same,Liver uptake,[3]; 60 min HN11-1 Block,1.20 ± 0.32 %ID/g
same,Lung uptake,[3]; 60 min HN11-1 Block,0.92 ± 0.04 %ID/g
same,Spleen uptake,[3]; 60 min HN11-1 Block,0.96 ± 0.17 %ID/g
same,Stomach uptake,[3]; 60 min HN11-1 Block,0.26 ± 0.05 %ID/g
same,Blood uptake,[3]; 60 min p.i.,0.34 ± 0.01 %ID/g
same,Heart uptake,[3]; 60 min p.i.,0.18 ± 0.02 %ID/g
same,Kidney uptake,[3]; 60 min p.i.,74.56 ± 3.78 %ID/g
same,Liver uptake,[3]; 60 min p.i.,0.91 ± 0.14 %ID/g
same,Lung uptake,[3]; 60 min p.i.,0.74 ± 0.04 %ID/g
same,Spleen uptake,[3]; 60 min p.i.,0.51 ± 0.17 %ID/g
same,Stomach uptake,[3]; 60 min p.i.,0.19 ± 0.03 %ID/g
same,Blood uptake,[3]; 90 min p.i.,0.16 ± 0.03 %ID/g
same,Heart uptake,[3]; 90 min p.i.,0.13 ± 0.01 %ID/g
same,Kidney uptake,[3]; 90 min p.i.,87.01 ± 3.40 %ID/g
same,Liver uptake,[3]; 90 min p.i.,0.28 ± 0.17 %ID/g
same,Lung uptake,[3]; 90 min p.i.,0.40 ± 0.11 %ID/g
same,Spleen uptake,[3]; 90 min p.i.,0.21 ± 0.04 %ID/g
same,Stomach uptake,[3]; 90 min p.i.,0.20 ± 0.02 %ID/g
